# Assay results as given in PMC4855831, “Cloning, expression and characterization of a β-D-xylosidase from Lactobacillus rossiae DSM 15814^T” (Microbial Cell Factories, 2016).
# Target: T1, XylA (β-D-xylosidase, LROS_1108) (Furfurilactobacillus rossiae, UniProt A0A0R1REJ8)
# T1 construct: gene FD35_GL000933; host Lactococcus lactis subsp. cremoris NZ9000; crude cell extract; from primers N-terminus MKIQNPVL, C-terminus KELPETK; EC 3.2.1.37
# Experiment: p-nitrophenol release at […] nm, XylA-containing crude cell extract
# Format: biochemical
# Settings: 5 mM pNPX, 50 mM phosphate buffer pH 5.7, 37.5 °C, 10 min
# T1 sequence (A0A0R1REJ8 entry or part of it): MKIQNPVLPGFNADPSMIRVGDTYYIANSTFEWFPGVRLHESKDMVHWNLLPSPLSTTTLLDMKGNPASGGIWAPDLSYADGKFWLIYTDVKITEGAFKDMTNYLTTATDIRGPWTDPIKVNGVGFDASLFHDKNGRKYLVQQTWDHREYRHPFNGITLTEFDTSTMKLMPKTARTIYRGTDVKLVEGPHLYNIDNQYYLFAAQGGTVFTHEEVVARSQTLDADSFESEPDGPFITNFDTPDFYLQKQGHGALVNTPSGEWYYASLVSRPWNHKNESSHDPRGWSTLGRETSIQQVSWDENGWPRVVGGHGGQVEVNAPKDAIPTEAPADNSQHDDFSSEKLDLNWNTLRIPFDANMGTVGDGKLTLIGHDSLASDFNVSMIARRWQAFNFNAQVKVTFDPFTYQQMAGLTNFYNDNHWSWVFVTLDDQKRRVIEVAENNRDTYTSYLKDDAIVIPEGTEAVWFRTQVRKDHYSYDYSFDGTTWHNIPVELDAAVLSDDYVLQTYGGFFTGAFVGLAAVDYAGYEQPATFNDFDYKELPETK
structure (smiles),measurement,value
O=[N+]([O-])c1ccc(O[C@@H]2OC[C@@H](O)[C@H](O)[C@H]2O)cc1 [p-nitrophenyl-β-D-xylopyranoside],"p-nitrophenol release at 410 nm, XylA-containing crude cell extract",amount of p-nitrophenol (pNP) released from p-nitrophenyl-β-D-xylopyranoside (pNPX) substrate
